Measured values as given in US20240173329A1, “BELVARAFENIB FOR USE IN TREATMENT OF BRAIN CANCERS” (Genentech, Inc., priority 2021, published 2024).

Key:
RAF-1 (CRAF) = RAF-1 (CRAF) (Homo sapiens, UniProt P04049); experiment: RAF kinase inhibition in vitro; format: biochemical
EPHB2 = molecular target: T1, EPHB2 (Homo sapiens, UniProt P29323); experiment: panel of 189 kinase assays; format: biochemical
T1 sequence (P29323 19-1055): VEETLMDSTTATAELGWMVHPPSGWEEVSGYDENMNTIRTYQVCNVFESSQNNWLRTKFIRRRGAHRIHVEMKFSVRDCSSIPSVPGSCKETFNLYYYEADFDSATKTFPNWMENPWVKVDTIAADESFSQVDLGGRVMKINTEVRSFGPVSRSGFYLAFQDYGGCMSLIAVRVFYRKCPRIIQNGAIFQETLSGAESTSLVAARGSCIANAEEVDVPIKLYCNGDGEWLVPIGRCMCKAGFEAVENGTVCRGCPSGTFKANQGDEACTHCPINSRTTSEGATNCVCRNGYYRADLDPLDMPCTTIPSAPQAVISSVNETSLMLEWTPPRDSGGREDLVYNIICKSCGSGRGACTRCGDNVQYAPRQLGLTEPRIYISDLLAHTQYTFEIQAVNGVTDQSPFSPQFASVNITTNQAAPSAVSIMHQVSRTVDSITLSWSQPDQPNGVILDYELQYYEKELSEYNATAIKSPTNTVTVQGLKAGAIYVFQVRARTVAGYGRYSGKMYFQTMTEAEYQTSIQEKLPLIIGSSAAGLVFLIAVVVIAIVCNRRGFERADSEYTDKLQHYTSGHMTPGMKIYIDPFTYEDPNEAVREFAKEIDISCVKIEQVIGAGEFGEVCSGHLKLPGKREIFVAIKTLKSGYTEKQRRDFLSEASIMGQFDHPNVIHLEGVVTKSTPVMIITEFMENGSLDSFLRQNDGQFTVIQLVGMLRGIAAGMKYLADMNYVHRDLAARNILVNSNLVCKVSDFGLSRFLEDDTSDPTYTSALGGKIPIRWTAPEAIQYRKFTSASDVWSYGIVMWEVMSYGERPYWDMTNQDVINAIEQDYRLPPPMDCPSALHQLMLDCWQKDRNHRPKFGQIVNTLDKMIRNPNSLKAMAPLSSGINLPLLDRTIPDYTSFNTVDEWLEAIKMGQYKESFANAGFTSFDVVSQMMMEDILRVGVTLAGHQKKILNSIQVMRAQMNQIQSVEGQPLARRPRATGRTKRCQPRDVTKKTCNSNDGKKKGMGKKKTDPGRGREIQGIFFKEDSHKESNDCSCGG

[1] = tested on: solid tumors harboring mutations in BRAF, KRAS, or NRAS genes; experiment: open-label Phase Ib dose-expansion study; format: in vivo, human
Procedure: In another open-label, Phase Ib, dose-expansion study, belvarafenib was evaluated at a dose of 450 mg BID in patients with solid tumors harboring mutations in BRAF, KRAS, or NRAS genes. Efficacy was analyzed for 59 of 63 subjects who had at least 1 dose of belvarafenib after enrollment and had at least 1 post-baseline tumor assessment. BORR was 11.86% (7/59 subjects), ORR was 6.78% (4/59 subjects) with PR as confirmed best overall response (3 subjects with melanoma and a subject with CRC). […] Fifty (84.75%) of 59 subjects developed an event (progression of disease or death), all of which were reported as PD except 1 death case. In addition, median progression-free survival (PFS) was 7.83 weeks and the 95% confidence interval for the median was [7.26 weeks, 8.26 weeks]. Median duration of response (DOR) of a total response in this study was 15.66 weeks from 7 responders.

[2] = Phase I relative bioavailability and food effect study in healthy subjects; format: in vivo; details: 200 mg single dose
Procedure: In another Phase I, single dose, randomized, crossover relative bioavailability and food effect study in healthy subjects, the influence of a formulation change from the Phase I to Phase II tablet on belvarafenib exposure was evaluated. A total of 18 healthy subjects were enrolled in the study and received the following randomized treatments: one 150-mg and one 50-mg Phase I tablet in a fed state, two 100-mg Phase II tablets in a fed state, or two 100-mg Phase II tablets in a fasted state, with an 18-day washout between treatments. There was a positive effect of food on belvarafenib exposure in the fed state compared to the fasted state.

Chain of RAF-1 (CRAF) (P04049 whole entry): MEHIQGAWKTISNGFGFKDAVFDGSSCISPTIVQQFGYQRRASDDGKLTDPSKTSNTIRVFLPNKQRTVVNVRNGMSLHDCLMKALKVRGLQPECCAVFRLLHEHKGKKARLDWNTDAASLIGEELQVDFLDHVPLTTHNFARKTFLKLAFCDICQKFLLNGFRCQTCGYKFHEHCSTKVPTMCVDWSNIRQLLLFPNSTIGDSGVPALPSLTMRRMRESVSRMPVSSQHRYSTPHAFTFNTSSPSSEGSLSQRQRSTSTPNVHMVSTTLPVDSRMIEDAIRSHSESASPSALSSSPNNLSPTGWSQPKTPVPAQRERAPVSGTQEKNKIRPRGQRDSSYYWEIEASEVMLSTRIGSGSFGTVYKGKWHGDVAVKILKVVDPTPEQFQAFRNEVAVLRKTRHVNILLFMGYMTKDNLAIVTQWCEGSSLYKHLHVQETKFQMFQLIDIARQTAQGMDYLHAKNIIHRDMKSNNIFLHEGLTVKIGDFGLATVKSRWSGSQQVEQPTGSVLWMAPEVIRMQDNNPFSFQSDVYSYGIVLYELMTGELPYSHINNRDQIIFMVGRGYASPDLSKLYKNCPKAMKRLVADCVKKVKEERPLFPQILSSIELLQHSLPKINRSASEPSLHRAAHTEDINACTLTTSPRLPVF

Cc1ccc2c(Nc3cccc(Cl)c3F)nccc2c1NC(=O)c1csc2c(N)ncnc12 [Belvarafenib, 4-amino-N-(1-((3-chloro-2-fluorophenyl)amino)-6-methylisoquinolin-5-yl)thieno[3,2-d]pyrimidine-7-carboxamide]
IC50 (RAF-1 (CRAF)): 2 nM | inhibition at 1 µM (EPHB2): > 90% | Disease control ([1]; 450 mg BID): 35.59% | ORR ([1]; 450 mg BID): 6.78% | median progression-free survival (PFS) ([1]; 450 mg BID): 7.83 weeks | subjects who developed an event (progression of disease or death) ([1]; 450 mg BID): 84.75% | Median duration of response (DOR) ([1]; 450 mg BID, 7 responders): 15.66 weeks | BORR ([1]; 450 mg BID, 59 evaluable subjects): 11.86% | Median DOR ([1]; 2 BRAF-mutant melanoma responders): 22.49 weeks | AUC0-inf increase, fed state compared to fasted state [2]: ~2.8 fold | Cmax increase, fed state compared to fasted state [2]: approximately 2.2 fold | adverse events [2]: No serious adverse events, adverse events of special interest, or deaths were reported
